Molecules are shown by their SMILES.

In this test the target is T1, human CRTH2 (Homo sapiens, UniProt Q9Y5Y4).
T1 sequence (Q9Y5Y4 1-395): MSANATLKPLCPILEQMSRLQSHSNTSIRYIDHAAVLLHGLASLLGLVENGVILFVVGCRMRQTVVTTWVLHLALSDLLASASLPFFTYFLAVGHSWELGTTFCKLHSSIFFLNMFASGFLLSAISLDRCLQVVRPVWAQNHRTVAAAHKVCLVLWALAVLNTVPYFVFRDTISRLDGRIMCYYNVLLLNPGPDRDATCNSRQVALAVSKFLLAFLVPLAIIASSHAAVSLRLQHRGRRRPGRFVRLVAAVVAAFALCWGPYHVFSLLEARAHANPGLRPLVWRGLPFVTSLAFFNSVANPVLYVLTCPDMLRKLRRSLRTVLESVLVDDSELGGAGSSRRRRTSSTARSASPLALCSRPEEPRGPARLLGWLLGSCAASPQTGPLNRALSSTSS
Kind of test: Human CRTH2 Receptor Binding Assay (whole cell, [3H]ramatroban). Conditions: CHO-K1 cells expressing human CRTH2 and G-alpha16; 20 nM [3H]ramatroban; 1 hour, room temperature. Details: expressed in transfected cells; host or cells: CHO-K1. The text has this: A whole cell receptor binding assay using [^3H]ramatroban as the competing radioactive ligand was employed to evaluate the compound binding activity to human CRTH2. The radioactive ligand [^3H]ramatroban was synthesized according to Sugimoto et. al. (Eur. J. Pharmacol. 524, 30-37, 2005) to a specific activity of 42 Ci/mmol.
A cell line stably expressing human CRTH2 was established by transfecting CHO-K1 cells with two mammalian expression vectors that harbored human CRTH2 and G-alpha16 cDNAs, respectively, using FuGene® 6 transfection reagent (from Roche). Stable clones expressing CRTH2 were selected by staining each clone with BM16 (BD Pharmingen™ from BD Biosciences, a division of Becton, Dickinson and Company), which is a rat monoclonal antibody to human CRTH2. The cells were maintained as monolayer cultures in Ham's F-12 medium containing 10% fetal bovine serum, 100 units/mL penicillin, 100 μg/mL streptomycin, 2 mM glutamine, 0.5 mg/mL G418 (geneticin) for CRTH2, and 0.2 mg/mL hygromycin-B (for G-alpha 16). For whole cell receptor binding assay, the monolayer cells were rinsed once with PBS (phosphate buffered saline), dissociated using ethylenediaminetetraacetate (Versene™ EDTA from Lonza Inc.), and suspended in PBS containing 10 mM MgCl2 and 0.06% BSA (bovine serum albumin) at 1.5×10^6 cells/mL.
The binding reactions (0.2 mL) were performed in 96-well plates at room temperature in PBS containing 1.5×10^5 cells, 10 mM MgCl2, 0.06% BSA, 20 nM [^3H]ramatroban, and test compound at various concentrations. After 1 hour of binding reactions, the cells were harvested on GF™/B filter microplates (microtiter plates with embedded glass fiber from Perkin Elmer, Inc.) and washed 5 times with PBS using a Filtermate™ Harvester (a cell harvester that harvests and washes cells from microplates from PerkinElmer, Inc.). The radioactivities bound to the cells were determined using a microplate scintillation counter (TopCount® NXT, from PerkinElmer, Inc.) after adding 50 μL of Microscint™ 20 scintillation fluid (from PerkinElmer, Inc.) to each well of the filter plates. The radioactivity from non-specific binding was determined by replacing compound with 10 μM of 15(R)-15-methyl PGD2 (from Cayman Chemical Company) in the reaction mixtures. The radioactivity bound to the cells in the absence of compound (total binding) was determined by replacing compound with 0.25% of DMSO (dimethyl sulfoxide) in the reaction mixture. Specific binding data were obtained by subtracting the radioactivity of non-specific binding from each binding data.
The IC50 value is defined as the concentration of the tested compound that is required for 50% inhibition of total specific binding. In order to calculate the IC50 value, the percent inhibition data were determined for 7 concentrations for each compound. The percent inhibition for a compound at each concentration was calculated according to the following formula, [1-(specific binding in the presence of compound)/(total specific binding)]×100. The IC50 value was then obtained by fitting the percent inhibition data to a sigmoidal dose-response (4 parameter logistic) model in the XLfit® software Excel add-in program [from ID Business Solutions Ltd., model 205, where F(x)=(A+(B−A)/(1+((C/×)^D)))].
`COc1ccc2cc(CC(=O)O)cc(C(=O)c3ccc(S(C)(=O)=O)cc3)c2c1` [Example 2-2, [4-(4-Methanesulfonyl-benzoyl)-6-methoxy-naphthalen-2-yl]-acetic acid]: the IC50 was found to be 26.4 nM.
Take `CCN(CC)S(=O)(=O)c1ccc(C(=O)c2cc(CC(=O)O)cc3ccc(F)cc23)cc1` [Example 2-22, [4-(4-Diethylsulfamoyl-benzoyl)-6-fluoro-naphthalen-2-yl]-acetic acid]: the IC50 was 2.5 nM.
For the compound `CCS(=O)(=O)c1ccc(C(=O)c2cc(CC(=O)O)cc3ccc(F)cc23)c(Cl)c1` [Example 1-4, [4-(2-Chloro-4-ethanesulfonyl-benzoyl)-6-fluoro-naphthalen-2-yl]-acetic acid], the IC50 was found to be 11.2 nM.
As for `CN(C)S(=O)(=O)c1ccc(Cc2cc(CC(=O)O)cc3ccc(F)cc23)cc1` [Example 8-8, [4-(4-Dimethylsulfamoyl-benzyl)-6-fluoro-naphthalen-2-yl]-acetic acid], the figure is 6 nM; as for `COC(c1ccc(S(C)(=O)=O)cc1)c1cc(CC(=O)O)cc2ccc(F)cc12` (centres unmarked) [Example 18-1, {6-Fluoro-4-[(4-methanesulfonyl-phenyl)-methoxy-methyl]-naphthalen-2-yl}-acetic acid], 40.4 nM; as for `CNS(=O)(=O)c1ccc(C(=O)c2cc(CC(=O)O)cc3ccc(F)cc23)c(C)c1` [Example 2-25, [6-Fluoro-4-(2-methyl-4-methylsulfamoyl-benzoyl)-naphthalen-2-yl]-acetic acid], 8.9 nM.
On to `O=C(O)Cc1cc(C(O)c2ccc(S(=O)(=O)N3CCOCC3)cc2)c2cc(F)ccc2c1` (centres unmarked) [Example 19-2, (6-Fluoro-4-{hydroxy-[4-(morpholine-4-sulfonyl)-phenyl]-methyl}-naphthalen-2-yl)-acetic acid], for which the IC50 is 9.5 nM. The IC50 values of the last two compounds are within 1.5-fold of each other.
`Cc1c(CC(=O)O)cc2ccc(F)cc2c1Cc1ccc(Br)cc1` [Example 10-4, [4-(4-Bromo-benzyl)-6-fluoro-3-methyl-naphthalen-2-yl]-acetic acid] had an IC50 of 24 nM.
For the compound `Cc1c(CC(=O)O)cc2ccc(F)cc2c1Cc1ccccc1S(=O)(=O)c1ccccc1` [Example 14-1], the IC50 was found to be 5.4 nM.
The figure for `CNS(=O)(=O)c1ccc(Cc2cc(CC(=O)O)cc3ccc(F)cc23)cc1` [Example 9-1, [6-Fluoro-4-(4-methylsulfamoyl-benzyl)-naphthalen-2-yl]-acetic acid] is 3.2 nM; for `COC(=O)c1cccc(Cc2c(C)c(CC(=O)O)cc3ccc(F)cc23)c1` [Example 15-5, 3-(3-Carboxymethyl-7-fluoro-2-methyl-naphthalen-1-ylmethyl)-benzoic acid methyl ester] it is 27.6 nM.
For `CS(=O)(=O)c1ccc(C(F)(F)c2cc(CC(=O)O)cc3ccc(F)cc23)cc1` [Example 17-2, {4-[Difluoro-(4-methanesulfonyl-phenyl)-methyl]-6-fluoro-naphthalen-2-yl}-acetic acid], the IC50 worked out at 3.1 nM.
The figure for `CCc1cc(C(=O)c2cc(CC(=O)O)cc3ccc(F)cc23)ccc1S(C)(=O)=O` [Example 2-19, [4-(3-Ethyl-4-methanesulfonyl-benzoyl)-6-fluoro-naphthalen-2-yl]-acetic acid] is 2.3 nM; for `CS(=O)(=O)c1ccc(C(=O)c2cc(CC(=O)O)cc3cc(C(F)(F)F)ccc23)cc1` [Example 2-32, [4-(4-Methanesulfonyl-benzoyl)-7-trifluoromethyl-naphthalen-2-yl]-acetic acid] it is 272 nM.
The compound `Cc1c(CC(=O)O)cc2ccc(F)cc2c1Cc1ccc(OCc2ccccc2)cc1` [Example 10-8, [4-(4-Benzyloxy-benzyl)-6-fluoro-3-methyl-naphthalen-2-yl]-acetic acid] yielded an IC50 of 5 nM.
The figure for `CS(=O)(=O)c1ccc(C(=O)c2cc(CC(=O)O)cc3ccccc23)cc1` [Example 2-3, [4-(4-Methanesulfonyl-benzoyl)-naphthalen-2-yl]-acetic acid] is 17 nM; for `CS(=O)(=O)c1ccc(C(O)c2cc(CC(=O)O)cc3ccc(F)cc23)c(Cl)c1` (centres unmarked) [Example 16-1, {4-[(2-Chloro-4-methanesulfonyl-phenyl)-hydroxy-methyl]-6-fluoro-naphthalen-2-yl}-acetic acid] it is 16.1 nM; for `Cc1cc(S(=O)(=O)N(C)C)ccc1C(=O)c1cc(CC(=O)O)cc2ccc(F)cc12` [Example 2-24, [4-(4-Dimethylsulfamoyl-2-methyl-benzoyl)-6-fluoro-naphthalen-2-yl]-acetic acid] it is 6.9 nM.
Take `Cc1c(CC(=O)O)cc2ccc(F)cc2c1Cc1cccc(C#N)c1` [Example 10-9, [4-(3-Cyano-benzyl)-6-fluoro-3-methyl-naphthalen-2-yl]-acetic acid]: the IC50 was determined as 59.9 nM.
Consider `CS(=O)(=O)c1ccc(C(O)c2cc(CC(=O)O)cc3ccccc23)cc1` (centres unmarked) [Example 16-6, {4-[Hydroxy-(4-methanesulfonyl-phenyl)-methyl]-naphthalen-2-yl}-acetic acid], for which the IC50 was determined as 35.2 nM.
The figure for `Cc1c(CC(=O)O)cc2ccc(F)cc2c1Cc1ccc(S(=O)(=O)c2ccccc2)cc1` [Example 10-3, [4-(4-Benzenesulfonyl-benzyl)-6-fluoro-3-methyl-naphthalen-2-yl]-acetic acid] is 3.2 nM; for `CCS(=O)(=O)c1ccc(C(O)c2cc(CC(=O)O)cc3ccc(F)cc23)c(C)c1` (centres unmarked) [Example 16-8, {4-[(4-Ethanesulfonyl-2-methyl-phenyl)-hydroxy-methyl]-6-fluoro-naphthalen-2-yl}-acetic acid] it is 18.9 nM; for `CN(C)S(=O)(=O)c1ccc(C(=O)c2cc(CC(=O)O)cc3ccc(F)cc23)cc1` [Example 2-14, [4-(4-Dimethylsulfamoyl-benzoyl)-6-fluoro-naphthalen-2-yl]-acetic acid] it is 2.7 nM.
As for `CCS(=O)(=O)c1ccc(C(=O)c2cc(CC(=O)O)cc3ccc(F)cc23)c(C)c1` [Example 2-20, [4-(4-Ethanesulfonyl-2-methyl-benzoyl)-6-fluoro-naphthalen-2-yl]-acetic acid], the figure is 17.9 nM.
The figure for `CCS(=O)(=O)c1ccc(C(F)(F)c2cc(CC(=O)O)cc3ccc(F)cc23)cc1` [Example 17-3, {4-[(4-Ethanesulfonyl-phenyl)-difluoro-methyl]-6-fluoro-naphthalen-2-yl}-acetic acid] is 3.9 nM; for `CNS(=O)(=O)c1ccc(C(=O)c2cc(CC(=O)O)cc3ccc(F)cc23)cc1` [Example 2-15, [6-Fluoro-4-(4-methylsulfamoyl-benzoyl)-naphthalen-2-yl]-acetic acid] it is 3.3 nM.
As to `CS(=O)(=O)c1ccc(C(=O)c2cc(CC(=O)O)cc3ccc(F)cc23)cc1C(F)(F)F` [Example 2-18, [6-Fluoro-4-(4-methanesulfonyl-3-trifluoromethyl-benzoyl)-naphthalen-2-yl]-acetic acid], the IC50 worked out at 4.2 nM. This IC50 and that of the compound before are within 1.5-fold of each other.
For `Cc1c(CC(=O)O)cc2ccc(F)cc2c1Cc1ccc(S(C)(=O)=O)cc1` [Example 10-1, [6-Fluoro-4-(4-methanesulfonyl-benzyl)-3-methyl-naphthalen-2-yl]-acetic acid], the IC50 worked out at 3.9 nM.
In turn, `CCS(=O)(=O)c1ccc(Cc2cc(CC(=O)O)cc3ccc(F)cc23)c(C)c1` [Example 8-7, [4-(4-Ethanesulfonyl-2-methyl-benzyl)-6-fluoro-naphthalen-2-yl]-acetic acid] had an IC50 of 5.4 nM. The IC50 values of the last two compounds are within 1.5-fold of each other.

One may read the IC50 as the concentration at which inhibition is half-maximal. Read a low IC50 as greater potency.
